Values of other authors as cited in US20070148194A1, “Novel nanoemulsion formulations” (priority 2005, published 2007).

Test system: HIV
Conditions: in vitro; read-out: anti-HIV activity in vitro, IC50

Q: With `CC(C)(C)NC(=O)[C@@H]1C[C@@H]2CCCC[C@@H]2CN1C[C@@H](O)[C@H](Cc1ccccc1)NC(=O)[C@H](CC(N)=O)NC(=O)c1ccc2ccccc2n1` [SQV, Saquinavir] as the compound, how does the IC50 read?
A: The IC50 was 20 nM.
